# Reference: patent publication US20240116921A1, “LACTAM (HETERO)[…] DERIVATIVES AS INHIBITORS OF ERBB2” (EnLiven Therapeutics, Inc., priority 2020, published 2024)
# Structures can show the parent of a compound that is named as a salt. Where two headings read alike, the source gives them in different places.
# Assays:
# BT-474 = test: Cell viability assay (CellTiter Glo), BT-474; format: cell-based; settings: Homo sapiens; BT-474 cells, 72 hours, CellTiter Glo; read-out: IC50, cell viability, BT-474
# [1] = biological target: T1, phosphorylated ERBB2 (pERBB2) (Homo sapiens, UniProt P04626); test: Detection of phosphorylated ERBB2 (pERBB2) by ELISA in BT-474 cells; format: cell-based; settings: four hours incubation
# T1 construct: endogenous in cells; host or cells: BT-474
# Procedure, shortened: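 BT-474 cells (2.0×10^4/well) treated 4 h at 37 °C, 5% CO2 with compounds in four-fold dilutions from 10 µM to 0.01 nM. Lysate pERBB2 measured by ELISA with TMB read at 450 nm; % relative activity scaled between no-cell wells and 0.1% DMSO-treated cells.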
# [2] = biological target: T2, phosphorylated EGFR (pEGFR) (Homo sapiens, UniProt P00533); test: Detection of phosphorylated EGFR (pEGFR) in EGF-stimulated A431 cells; format: cell-based; settings: A431 cells (10% FBS), 4 hours incubation, EGF 30 ng/mL 10 minutes, AlphaLISA
# T2 construct: performed to measure phosphorylated EGFR levels using A431 cells (10% FBS); endogenous in cells; host or cells: A431
# Procedure, shortened: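 A431 cells in 10% FBS were preincubated with compound for 4 h at 37 °C, then stimulated with EGF (30 ng/mL final) for 10 min. pEGFR in lysates was read by AlphaLISA. % inhibition was calculated against DMSO and staurosporine-treated controls, and IC50 came from a four-parameter curve fit.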
# A431 = test: Cell viability assay (CellTiter Glo), A431; format: cell-based; settings: Homo sapiens, A-431, A431 cells, 72 hours
# [3] = biological target: Ba/F3 ERBB2 A775_G776insYVMA (Homo sapiens, UniProt P04626, DUP772-775, cells depend on it); test: Cell viability assay, Ba/F3 ERBB2 A775_G776insYVMA; format: cell-based, mouse; settings: 72 hours, CellTiter Glo
# Procedure, shortened: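 IL-3-independent Ba/F3 lines stably expressing the human ERBB2 insertion mutants were seeded at 3000 cells/well and exposed to compounds for 72 h at 37 °C, 5% CO2. Viability was read as ATP by CellTiter-Glo luminescence. Curves were fitted by sigmoidal nonlinear regression.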
# [4] = Ba/F3 ERBB2 A775_G776insYVMA cells, Tables B2-B4, read-out: IC50, cell viability, Ba/F3 ERBB2 A775_G776insYVMA
# [5] = Ba/F3 ERBB2 YVMA cells, cell viability, Table B5, read-out: Ba/F3 ERBB2 YVMA, IC50
# T1 sequence (P04626 23-1255): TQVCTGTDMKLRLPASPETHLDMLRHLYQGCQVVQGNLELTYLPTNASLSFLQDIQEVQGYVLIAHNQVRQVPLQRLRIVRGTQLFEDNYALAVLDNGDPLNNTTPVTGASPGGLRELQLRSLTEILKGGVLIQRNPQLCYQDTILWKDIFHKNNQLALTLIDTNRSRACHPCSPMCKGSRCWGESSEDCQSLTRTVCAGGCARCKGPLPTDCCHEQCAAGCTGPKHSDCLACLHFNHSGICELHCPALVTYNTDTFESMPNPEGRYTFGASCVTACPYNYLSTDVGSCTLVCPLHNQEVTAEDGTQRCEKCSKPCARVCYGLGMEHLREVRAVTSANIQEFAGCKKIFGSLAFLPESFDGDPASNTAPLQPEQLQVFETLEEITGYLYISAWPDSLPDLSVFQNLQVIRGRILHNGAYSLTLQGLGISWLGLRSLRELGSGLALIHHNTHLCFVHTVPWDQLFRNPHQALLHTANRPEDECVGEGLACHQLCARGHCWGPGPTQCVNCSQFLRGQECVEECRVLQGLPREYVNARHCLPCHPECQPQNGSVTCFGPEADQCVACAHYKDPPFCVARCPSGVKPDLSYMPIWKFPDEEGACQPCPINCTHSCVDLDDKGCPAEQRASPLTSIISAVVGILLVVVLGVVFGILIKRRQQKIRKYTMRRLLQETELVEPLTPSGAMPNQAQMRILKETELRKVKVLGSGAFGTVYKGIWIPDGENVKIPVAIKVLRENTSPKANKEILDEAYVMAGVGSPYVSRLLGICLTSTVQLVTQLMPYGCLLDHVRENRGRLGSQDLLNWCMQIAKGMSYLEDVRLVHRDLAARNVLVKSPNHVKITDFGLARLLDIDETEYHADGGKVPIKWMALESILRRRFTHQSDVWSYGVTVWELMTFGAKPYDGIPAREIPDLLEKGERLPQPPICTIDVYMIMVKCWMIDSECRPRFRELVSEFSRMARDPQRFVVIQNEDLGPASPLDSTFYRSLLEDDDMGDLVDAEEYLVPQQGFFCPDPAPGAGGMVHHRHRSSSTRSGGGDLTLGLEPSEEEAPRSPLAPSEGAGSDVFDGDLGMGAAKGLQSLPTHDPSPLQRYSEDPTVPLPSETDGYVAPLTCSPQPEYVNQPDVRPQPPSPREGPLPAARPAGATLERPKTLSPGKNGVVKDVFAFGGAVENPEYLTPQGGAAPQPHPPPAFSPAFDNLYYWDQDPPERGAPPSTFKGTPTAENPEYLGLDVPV
# T2 sequence (P00533 25-1210): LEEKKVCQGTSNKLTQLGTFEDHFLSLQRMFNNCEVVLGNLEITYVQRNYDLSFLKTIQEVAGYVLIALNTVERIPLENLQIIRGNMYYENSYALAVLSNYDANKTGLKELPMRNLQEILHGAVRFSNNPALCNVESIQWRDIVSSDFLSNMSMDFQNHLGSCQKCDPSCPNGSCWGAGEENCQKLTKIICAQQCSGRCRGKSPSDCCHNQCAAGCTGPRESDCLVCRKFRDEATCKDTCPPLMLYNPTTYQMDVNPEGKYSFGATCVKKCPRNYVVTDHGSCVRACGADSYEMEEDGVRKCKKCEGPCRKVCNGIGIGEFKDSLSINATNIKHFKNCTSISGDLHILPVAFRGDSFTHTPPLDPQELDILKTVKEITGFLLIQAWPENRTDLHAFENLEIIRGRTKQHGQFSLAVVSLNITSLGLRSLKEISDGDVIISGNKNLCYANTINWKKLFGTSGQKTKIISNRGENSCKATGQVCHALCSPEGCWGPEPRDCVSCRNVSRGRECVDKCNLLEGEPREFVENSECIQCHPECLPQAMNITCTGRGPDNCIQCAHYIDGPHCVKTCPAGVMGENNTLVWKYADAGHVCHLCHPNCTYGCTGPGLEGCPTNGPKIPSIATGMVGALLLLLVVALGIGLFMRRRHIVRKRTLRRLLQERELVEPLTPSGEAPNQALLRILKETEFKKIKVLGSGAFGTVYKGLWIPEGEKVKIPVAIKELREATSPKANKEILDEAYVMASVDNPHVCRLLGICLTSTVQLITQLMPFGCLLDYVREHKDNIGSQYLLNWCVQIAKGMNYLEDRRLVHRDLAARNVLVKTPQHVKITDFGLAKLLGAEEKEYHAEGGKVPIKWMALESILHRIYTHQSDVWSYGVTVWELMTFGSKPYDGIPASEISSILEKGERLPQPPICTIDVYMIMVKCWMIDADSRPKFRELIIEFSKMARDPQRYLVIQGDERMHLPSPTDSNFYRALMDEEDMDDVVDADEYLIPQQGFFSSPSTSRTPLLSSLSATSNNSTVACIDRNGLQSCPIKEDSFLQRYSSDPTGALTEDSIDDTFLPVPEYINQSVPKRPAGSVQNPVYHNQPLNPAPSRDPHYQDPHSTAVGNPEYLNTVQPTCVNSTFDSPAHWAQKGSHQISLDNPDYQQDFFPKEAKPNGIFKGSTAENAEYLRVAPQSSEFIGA
# Sequence of Ba/F3 ERBB2 A775_G776insYVMA (P04626 with tags, fused parts or gaps DUP772-775): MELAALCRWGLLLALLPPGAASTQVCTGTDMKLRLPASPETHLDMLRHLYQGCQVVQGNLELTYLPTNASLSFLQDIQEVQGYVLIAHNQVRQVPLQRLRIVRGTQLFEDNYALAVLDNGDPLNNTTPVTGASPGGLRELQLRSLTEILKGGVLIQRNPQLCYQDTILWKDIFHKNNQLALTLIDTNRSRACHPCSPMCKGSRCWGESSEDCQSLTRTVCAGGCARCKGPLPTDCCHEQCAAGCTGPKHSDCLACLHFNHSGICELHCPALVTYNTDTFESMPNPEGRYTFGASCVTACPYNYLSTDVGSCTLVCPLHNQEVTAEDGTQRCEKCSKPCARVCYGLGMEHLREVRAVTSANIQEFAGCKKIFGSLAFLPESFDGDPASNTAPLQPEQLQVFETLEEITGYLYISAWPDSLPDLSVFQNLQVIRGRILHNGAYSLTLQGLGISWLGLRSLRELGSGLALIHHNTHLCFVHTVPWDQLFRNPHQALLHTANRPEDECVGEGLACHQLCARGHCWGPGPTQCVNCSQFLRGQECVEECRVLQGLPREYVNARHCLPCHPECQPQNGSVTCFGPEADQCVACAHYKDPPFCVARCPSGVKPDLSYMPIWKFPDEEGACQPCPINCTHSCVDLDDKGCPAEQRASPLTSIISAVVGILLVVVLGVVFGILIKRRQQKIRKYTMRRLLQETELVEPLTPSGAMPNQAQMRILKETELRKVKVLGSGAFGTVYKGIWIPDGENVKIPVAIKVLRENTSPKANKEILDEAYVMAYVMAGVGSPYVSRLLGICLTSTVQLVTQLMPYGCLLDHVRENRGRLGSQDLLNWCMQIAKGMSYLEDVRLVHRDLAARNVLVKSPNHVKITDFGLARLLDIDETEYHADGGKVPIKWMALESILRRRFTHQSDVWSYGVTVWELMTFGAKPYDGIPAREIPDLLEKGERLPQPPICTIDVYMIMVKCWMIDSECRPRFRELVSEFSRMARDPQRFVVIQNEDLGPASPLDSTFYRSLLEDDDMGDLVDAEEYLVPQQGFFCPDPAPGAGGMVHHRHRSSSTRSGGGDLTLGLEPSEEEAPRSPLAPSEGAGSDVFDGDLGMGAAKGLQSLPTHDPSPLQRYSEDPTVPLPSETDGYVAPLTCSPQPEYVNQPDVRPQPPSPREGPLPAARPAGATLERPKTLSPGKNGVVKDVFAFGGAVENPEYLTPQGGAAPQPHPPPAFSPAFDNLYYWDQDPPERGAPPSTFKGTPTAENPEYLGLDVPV
Compound,IC50 (BT-474) [µM],IC50 [1] [µM],IC50 [2] [µM],IC50 (A431) [µM],"GI50 [3, 4] [µM]","GI50 [3, 5] [µM]"
"C=C1C(=O)N(c2ccc3ncnc(Nc4ccc(Oc5ccn6ncnc6c5)c(C)c4)c3c2)CC12CC2 [Compound 2, 5-[4-[(3-methyl-4-[[1,2,4]triazolo[1,5-a]pyridin-7-yloxy]phenyl)amino]quinazolin-6-yl]-7-methylidene-5-azaspiro[2.4]heptan-6-one]",0.0195,0.0759,> 10,,,
"C=C1CCN(c2ccc3ncnc(Nc4ccc(Cc5ccc(C)nc5)cc4)c3c2)C1=O [Compound 8, 3-methylidene-1-[4-([4-[(6-methylpyridin-3-yl)methyl]phenyl]amino)quinazolin-6-yl]pyrrolidin-2-one]",0.0529,,,7.5,,
"C=C1CCN(c2ccc3ncnc(Nc4ccc(Cc5ccn6ncnc6c5)cc4)c3c2)C1=O [Compound 9, 3-methylidene-1-[4-[(4-[[1,2,4]triazolo[1,5-a]pyridin-7-ylmethyl]phenyl)amino]quinazolin-6-yl]pyrrolidin-2-one]",0.0447,,,> 10,,
"C=C1CCN(c2ccc3ncnc(Nc4ccc(Oc5ccn6ncnc6c5)c(Cl)c4)c3c2)C1=O [Compound 10, 1-[4-[(3-chloro-4-[[1,2,4]triazolo[1,5-a]pyridin-7-yloxy]phenyl)amino]quinazolin-6-yl]-3-methylidenepyrrolidin-2-one]",0.0271,,,0.673,,
"C=C1CCN(c2ccc3ncnc(Nc4ccc(Oc5ccn6ncnc6c5)c(F)c4)c3c2)C1=O [Compound 11, 1-[4-[(3-fluoro-4-[[1,2,4]triazolo[1,5-a]pyridin-7-yloxy]phenyl)amino]quinazolin-6-yl]-3-methylidenepyrrolidin-2-one]",7.67,,,6.51,,
"C=C1CCN(c2ccc3ncnc(Nc4ccc(Oc5ccn6ncnc6c5)c(C)c4F)c3c2)C1=O [Compound 14, 1-[4-[(2-fluoro-3-methyl-4-[[1,2,4]triazolo[1,5-a]pyridin-7-yloxy]phenyl)amino]quinazolin-6-yl]-3-methylidenepyrrolidin-2-one]",0.00432,0.0269,3.8,,,
"C=C1CCN(c2ccc3ncnc(Nc4cc(C)c(Oc5ccn6ncnc6c5)cc4F)c3c2)C1=O [Compound 15, 1-[4 [(2-fluoro-5-methyl-4-[[1,2,4]triazolo[1,5-a]pyridin-7-yloxy]phenyl)amino]quinazolin-6-yl]-3-methylidenepyrrolidin-2-one]",0.00327,0.00815,1.25,,0.245,
"C=C1CCN(c2ccc3ncnc(Nc4ccc(Cc5ccn6ncnc6c5)c(C)c4)c3c2)C1=O [Compound 16, 1-[4-[(3-methyl-4-[[1,2,4]triazolo[1,5-a]pyridin-7-ylmethyl]phenyl)amino]quinazolin-6-yl]-3-methylidenepyrrolidin-2-one]",0.00467,0.00915,0.235,,0.169,
"Cc1cc(Nc2ncnc3ccc(N4CC/C(=C\CN(C)C)C4=O)cc23)ccc1Oc1ccn2ncnc2c1 [Compound 18, (E)-1-(4-(4-([1,2,4]triazolo[1,5-a]pyridin-7-yloxy)-3-methylphenylamino)quinazolin-6-yl)-3-(2-(dimethylamino)ethylidene)pyrrolidin-2-one hydrochloride]",0.00373,0.00752,> 9.64,,0.0771,
"Cc1cc(Nc2ncnc3cnc(N4CC/C(=C\CN(C)C)C4=O)cc23)ccc1Oc1cncc(F)c1 [Compound 155, (3E)-3-[2-(dimethylamino)ethylidene]-1-[4-({4-[(5-fluoropyridin-3-yl)oxy]-3-methylphenyl}amino)pyrido[3,4-d]pyrimidin-6-yl]pyrrolidin-2-one]",,0.0179,0.331,,,0.0354
"CN(C)C/C=C1\CCN(c2ccc3ncnc(Nc4ccc(Oc5ccn6ncnc6c5)cc4F)c3n2)C1=O [Compound 156, (E)-1-(4-((4-([1,2,4]triazolo[1,5-a]pyridin-7-yloxy)-2-fluorophenyl)amino)pyrido[3,2-d]pyrimidin-6-yl)-3-(2-(dimethylamino)ethylidene)pyrrolidin-2-one]",,0.0217,7.76,,,0.0233
